From patent US20120064154A1, “SOLID DRUG FOR ORAL USE” (KISSEI PHARMACEUTICAL CO., LTD., priority 2002, published 2012)

Legend:
Solubility of KMD-3213 = assay type: physicochemical
Stability of KMD-3213 = assay type: physicochemical

solubility (Solubility of KMD-3213; in a neutral medium such as water): hardly soluble | solubility (Solubility of KMD-3213; in an acidic medium): relatively a high solubility | stability (Stability of KMD-3213; against a light exposure): relatively unstable | stability (Stability of KMD-3213; in acidic conditions): stable
SMILES: C[C@H](Cc1cc2c(c(C(N)=O)c1)N(CCCO)CC2)NCCOc1ccccc1OCC(F)(F)F [KMD-3213]
